Where a name gives a salt, the structure may show the parent alone. Read-outs that look alike come from different tables or passages of the source.
Columns and labels:
TlpAD165A = biological target: T1, TlpAD165A (Helicobacter pylori, UniProt O24925, D165A); assay: biochemical
T1 sequence (O24925 28-299 D165A): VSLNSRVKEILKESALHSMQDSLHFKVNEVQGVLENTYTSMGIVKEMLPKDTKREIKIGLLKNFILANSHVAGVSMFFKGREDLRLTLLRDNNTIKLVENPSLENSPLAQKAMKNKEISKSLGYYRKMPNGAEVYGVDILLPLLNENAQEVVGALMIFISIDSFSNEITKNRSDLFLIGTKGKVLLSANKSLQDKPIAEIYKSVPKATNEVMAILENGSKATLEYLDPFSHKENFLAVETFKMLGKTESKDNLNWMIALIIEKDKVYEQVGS
Description: (§1) The periplasmic portion of TlpA (TlpALBD), amino acids 28 to 299, from Helicobacter pylori SS1 was cloned into a pBH4 expression vector (pBH4_TlpALBD) to generate an N-terminal 6×His-tagged construct, with a tobacco etch virus (TEV) protease site, under the control of isopropyl-β-D-thiogalactopyranoside (IPTG) ([19]). […] TlpALBD and all point mutants were purified as described previously by Sweeney et al. ([19]).
(§2) Purified TlpALBD was immobilized on a CM5 series S sensor chip, and binding affinities were tested using a Biacore S200 instrument (GE Healthcare) as described previously ([39], [57], [59]). Briefly, proteins were captured using an amine-coupling kit (GE Healthcare), in which the carboxylmethyl dextran matrix of the sensor chip was activated by the injection of a mixture of 0.2 M 1-ethyl-3-[(3-dimethylamino)propyl]-carbodiimide (EDC) and 0.05 M N-hydroxysuccinimide (NHS), followed by the neutralization of the remaining unreacted NHS ester groups by the injection of 1 M ethanolamine-HCl (pH 8.0). Purified TlpALBD was diluted in 10 mM sodium acetate buffer (pH 4.5) at a concentration of 100 μg/ml for immobilization to the chip. A total of 8,400 response units (RU) of TlpALBD were captured on flow cell 2. As a negative control, flow cell 1 was a blank control undergoing the same treatment as the other flow paths, without the protein injection. This set enabled double-reference subtraction of the responses (2 − 1, 3 − 1, and 4 − 1). The tested compounds were prepared as a stock concentration of 100 to 200 mM in PBS. The compounds were then diluted between 1 nM and 1 mM in a series of 1:10 dilutions in PBS and run over the flow cells at a flow rate of 30 μl/min. Between each sample testing, a series of buffer-only injections was run to enable double-blank subtraction for the sensorgram assessment. […] The data sets were analyzed using Biacore S200 evaluation software 2.0.2; sensorgrams were double-reference subtracted.

TlpAD254A = biological target: T2, TlpAD254A (Helicobacter pylori, UniProt O24925, D254A); assay: biochemical
T2 sequence (O24925 28-299 D254A): T1 sequence (O24925 28-299 D165A)
Description: as §1, §2

TlpALBD (TlpAWT) = biological target: T3, TlpALBD (TlpAWT) (Helicobacter pylori, UniProt O24925); assay: biochemical; conditions: SPR
T3 sequence (O24925 28-299): T1 sequence (O24925 28-299 D165A)
Description: as §1, §2

TlpAM183A = biological target: T4, TlpAM183A (Helicobacter pylori, UniProt O24925, M183A); assay: biochemical
T4 sequence (O24925 28-299 M183A): T1 sequence (O24925 28-299 D165A)
Description: as §1, §2

TlpAY228A = biological target: T5, TlpAY228A (Helicobacter pylori, UniProt O24925, Y228A); assay: biochemical
T5 sequence (O24925 28-299 Y228A): T1 sequence (O24925 28-299 D165A)
Description: as §1, §2

TlpAY252A = biological target: T6, TlpAY252A (Helicobacter pylori, UniProt O24925, Y252A); assay: biochemical
T6 sequence (O24925 28-299 Y252A): T1 sequence (O24925 28-299 D165A)
Description: as §1, §2

H. pylori PMSS1 WT = assay: Temporal chemotaxis assay (live-cell video microscopy, direction changes), WT; type: cell-based, Helicobacter pylori; conditions: for Chemotactic response (direction changes vs mock): WT, 0.1, 1, 10 mM tested, acidic ligand stocks pH neutralized with NaOH, 10 mM most significant; for Chemotactic response, ligand stock pH not adjusted: acidic in solution, unadjusted pH
Experimental: H. pylori chemotactic responses toward the seven putative TlpA-dependent ligands were examined by a live-cell video microscopy assay that measures the temporal chemotaxis response to test ligands. […] Acidic conditions are sensed by chemoreceptors other than TlpA ([24], [29], [31]) and potentially mask chemotactic responses to the ligands being tested.
Cultures of H. pylori PMSS1 WT and ΔtlpA strains were grown overnight, back-diluted, and then incubated until an OD600 of 0.12 to 0.15 was reached. Cultures were treated with water (Mock) or various concentrations of compounds, as indicated. […] The cells were immediately filmed, and direction changes were counted over a 3-s swimming period in at least 100 cells per treatment from 3 biological replicates. Data are normalized to the values for the untreated control for each strain, as described in Materials and Methods. Error bars represent the standard errors of the means. *, P < 0.05; **, P < 0.01; ***, P < 0.001 (comparisons to the untreated control per strain using two-way ANOVA with Dunnett’s multiple-comparison test).
Swimming behavior assays were done with H. pylori PMSS1 strains grown in BB10 as described above. Cultures grown overnight were diluted to an optical density at 600 nm (OD600) of 0.1 in fresh BB10 and then incubated with shaking as described above until an OD600 of 0.12 to 0.15 was reached. […] The number of direction changes in a bacterial swimming trajectory was enumerated over a 3-s interval to determine whether each putative ligand is sensed as an attractant or repellent or elicits no response ([20], [25][–][30]). […] Each control is sensed by chemoreceptors other than TlpA ([24], [25], [29], [31]). The pH of BB10 upon treatment was independently assessed using a Denver Instruments pH meter. […] Therefore, to be able to compare the results to those of previous experiments, we continued resuspending acidified ligands in pure water and then adjusting the pH of the resuspended ligand using NaOH. Cultures were filmed immediately after ligand addition at a ×400 magnification using a Hamamatsu C4742-95 digital camera with μManager software (version 1.4.22), mounted on a Nikon Eclipse E600 phase-contrast microscope. For the competition chemotaxis assay, cultures of H. pylori and ligands were prepared as described above. However, 1 min after the addition of a nonchemoactive ligand at a final concentration of 10 mM, a chemoactive ligand was added at a final concentration of 10 mM, and the cultures were then filmed as described above. Videos were relabeled to blind the observer to the strain identity. For each sample, >100 3-s-long bacterial tracks from three independent cultures were analyzed manually to identify stops followed by direction changes. Data for all biological replicates under each condition were combined, and the average number of direction changes in 3 s and the standard error of the mean were calculated. For each strain, data were normalized to the values for the untreated control under each experimental condition. Statistical analysis of the data for treated versus untreated samples was performed using two-way analysis of variance (ANOVA) and Dunnett’s multiple-comparison test.

[1] = Mean binding affinity ± SD, Table 1, n = 3
[2] = dissociation constant [Kd], WT TlpALBD

Structure (SMILES): N=C(N)NCCC[C@H](N)C(=O)O [Arginine, L-arginine monohydrochloride]
- Kd (TlpAD165A): 12.4 ± 0.84 µM
- Kd (TlpAD254A): 3.71 ± 0.73 µM
- Kd (TlpALBD (TlpAWT); [1]): 2 ± 0.11 µM
- Kd (TlpALBD (TlpAWT); [2]): < 10 µM
- Kd (TlpAM183A): 22.3 ± 5.9 µM
- Kd (TlpAY228A): 8.3 ± 1.6 µM
- Kd (TlpAY252A): 4.96 ± 1.8 µM
- Chemotactic response (direction changes vs mock) (H. pylori PMSS1 WT): fewer direction changes

Structure (SMILES): N[C@@H](CS)C(=O)O [Cysteine, L-cysteine hydrochloride monohydrate]
- Kd (TlpAD165A): 41.9 ± 0.4 µM
- Kd (TlpAD254A): 4.58 ± 1.5 µM
- Kd (TlpALBD (TlpAWT); [1]): 4.7 ± 0.3 µM
- Kd (TlpALBD (TlpAWT); [2]): < 10 µM
- Kd (TlpAM183A): 36.1 ± 15.7 µM
- Kd (TlpAY228A): 15.7 ± 6.6 µM
- Kd (TlpAY252A): 5.5 ± 0.8 µM
- Chemotactic response (direction changes vs mock) (H. pylori PMSS1 WT): fewer direction changes
- Chemotactic response, ligand stock pH not adjusted (H. pylori PMSS1 WT): significant TlpA-independent chemorepellent responses

Structure (SMILES): O=C(O)/C=C/C(=O)O [Fumarate, sodium fumarate]
- Kd (TlpAD165A): 100 ± 38.9 µM
- Kd (TlpAD254A): 44 ± 8.1 µM
- Effect of TlpAD254A mutation on binding (TlpAD254A; membrane-proximal mutant vs WT): affected only fumarate binding
- Kd (TlpALBD (TlpAWT); [1]): 10 ± 1.53 µM
- Kd (TlpALBD (TlpAWT); [2]): < 10 µM
- Kd (TlpAM183A): 106 ± 36.6 µM
- Kd (TlpAY228A): 46.6 ± 3.9 µM
- Kd (TlpAY252A): 8.5 ± 1.7 µM
- Chemotactic response (direction changes vs mock) (H. pylori PMSS1 WT): fewer direction changes

Structure (SMILES): N[C@H]1C(O)O[C@H](CO)[C@@H](O)[C@@H]1O (stereo partly drawn) [Glucosamine, D(+)-glucosamine hydrochloride]
- Kd (TlpAD165A): 96 ± 24.3 µM
- Kd (TlpAD254A): 9.84 ± 3.7 µM
- Kd (TlpALBD (TlpAWT); [1]): 10.5 ± 2.8 µM
- Kd (TlpALBD (TlpAWT); [2]): < 10 µM
- Kd (TlpAM183A): 94.6 ± 57.3 µM
- Kd (TlpAY228A; read-out: Mean binding affinity ± SD, TlpAY228A, SPR, membrane-proximal mutant, n = 3): 17.1 µM
- Kd (TlpAY252A): 2.96 ± 0.7 µM
- Chemotactic response (direction changes vs mock) (H. pylori PMSS1 WT): no significant direction changes

Structure (SMILES): O=C(O)C[C@H](O)C(=O)O [Malic acid, L-malic acid]
- Kd (TlpAD165A): 11.9 ± 4.3 µM
- Kd (TlpAD254A): 29.3 ± 2 µM
- Kd (TlpALBD (TlpAWT); [1]): 46 ± 17 µM
- Kd (TlpALBD (TlpAWT); [2]): > 45 µM
- Kd (TlpAM183A): 33.6 ± 6.2 µM
- Kd (TlpAY228A): 28.6 ± 9.4 µM
- Kd (TlpAY252A): 14.2 ± 6.2 µM
- Chemotactic response (direction changes vs mock) (H. pylori PMSS1 WT): no significant direction changes
- Chemotactic response, ligand stock pH not adjusted (H. pylori PMSS1 WT): significant TlpA-independent chemorepellent responses

Structure (SMILES): Cc1ncc(C[n+]2csc(CCO)c2C)c(N)n1 [Thiamine, thiamine hydrochloride]
- Kd (TlpAD165A): 43.9 ± 14.1 µM
- Kd (TlpAD254A): 39.3 ± 4.3 µM
- Kd (TlpALBD (TlpAWT); [1]): 60 ± 0.6 µM
- Kd (TlpALBD (TlpAWT); [2]): > 45 µM
- Kd (TlpAM183A): 18.1 ± 1.2 µM
- Kd (TlpAY228A): 29.5 ± 12.3 µM
- Kd (TlpAY252A): 35 ± 7.3 µM
- Chemotactic response (direction changes vs mock) (H. pylori PMSS1 WT): no significant direction changes
- Chemotactic response, ligand stock pH not adjusted (H. pylori PMSS1 WT): significant TlpA-independent chemorepellent responses
